Reference: the supplement of paper PMC6045584

Experiments:
Experiment in all cases: area under dose-response curve of surviving fraction (unscaled, Aref=0) (surviving fraction x log10(nM)); higher = more resistant
Conditions in all cases: exposure time: 5 days; dose range 0.5-1000 nM
CANERTINIB = compound: C=CC(=O)Nc1cc2c(Nc3ccc(F)c(Cl)c3)ncnc2cc1OCCCN1CCOCC1 [CANERTINIB]
Summary of the method: (§1)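 Surviving fractions were fitted by 3-parameter logistic regression in the drc R package to give dose-response survival curves. They came from tumour cell lines treated for five days with eight inhibitor concentrations from 0.5 to 1000 nM and read by CellTiter-Glo luminescence against DMSO-only wells. The area under the curve is the unscaled activity area. It was calculated over log10 dose with Aref = 0.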

SNX-5422 = compound: CC1(C)CC(=O)c2c(C(F)(F)F)nn(-c3ccc(C(N)=O)c(N[C@H]4CC[C@H](OC(=O)CN)CC4)c3)c2C1 [SNX-5422]
Summary of the method: as §1

BI-2536 = compound: CC[C@@H]1C(=O)N(C)c2cnc(Nc3ccc(C(=O)NC4CCN(C)CC4)cc3OC)nc2N1C1CCCC1 [BI-2536]
Summary of the method: as §1

MDV3100 = compound: CNC(=O)c1ccc(N2C(=S)N(c3ccc(C#N)c(C(F)(F)F)c3)C(=O)C2(C)C)cc1F [MDV3100]
Summary of the method: as §1

| Test System | area under dose-response curve (CANERTINIB) | area under dose-response curve (SNX-5422) | area under dose-response curve (BI-2536) | area under dose-response curve (MDV3100) |
| --- | --- | --- | --- | --- |
| 22RV1 PROSTATE | 3.32 | 1.82 | 0.963 | 3.12 |
| 93VU HEADNECK | 2.56 | 2.18 | 1.49 | 3.11 |
| 143B BONE | – | 2.02 | 0.815 | – |
| A549 LUNG | 3.08 | 2.28 | 1.16 | 3.23 |
| ASKA SYNOVIAL | – | 2.11 | 1.04 | – |
| BT20 BREAST | 2.52 | 2.46 | 0.663 | 3.5 |
| BT549 BREAST | 2.74 | 1.94 | 0.891 | 3.26 |
| CAL51 BREAST | 3.08 | 1.93 | 0.68 | 3.24 |
| CAL72 BONE | – | 2.02 | 0.831 | 3.36 |
| CAL120 BREAST | 3.01 | 1.77 | 0.616 | 3.07 |
| CASKI CERVIX | 1.85 | 1.63 | 0.43 | 3.17 |
| CHLA90 AUTONOMIC GANGLIA | 2.51 | 2.04 | 1.2 | 2.67 |
| CME SYNOVIAL | 3.18 | 2.5 | 1.64 | 2.99 |
| COLO320DM LARGE INTESTINE | 3.25 | 2.19 | 1.68 | 3.31 |
| DU4475 BREAST | 2.65 | 1.76 | 1.14 | 3.04 |
| G292 BONE | 3.18 | 2.01 | 0.883 | 3.25 |
| H23 LUNG | 1.77 | 2.03 | 1.66 | 3.13 |
| HCC38 BREAST | 3.55 | 1.97 | 1.35 | 4.04 |
| HCC70 BREAST | 3 | 2.19 | 2 | 3.28 |
| HCC78 LUNG | 2.55 | 1.71 | 0.803 | 2.9 |
| HCC1395 BREAST | 3.33 | 3.15 | 2.69 | 3.87 |
| HCC1954 BREAST | 0.92 | 1.62 | 1.92 | – |
| HCT15 LARGE INTESTINE | 2.73 | 2.24 | 1.88 | 2.75 |
| HMT3552 BREAST | 2.58 | – | – | 3.66 |

| Test System | area under dose-response curve (CANERTINIB) | area under dose-response curve (SNX-5422) | area under dose-response curve (BI-2536) | area under dose-response curve (MDV3100) |
| --- | --- | --- | --- | --- |
| HOS BONE | 3.14 | 1.72 | 0.874 | 3.36 |
| HOSMNG BONE | 3.4 | 2.33 | 1.32 | 3.56 |
| HS578T BREAST | 2.92 | 2.21 | 0.912 | 3.38 |
| HSSYII SYNOVIAL | 2.66 | 1.9 | 0.796 | 2.74 |
| HT1080 SOFT TISSUE | 3.29 | 2.11 | 1.26 | 3.42 |
| HU09 BONE | 3.15 | 1.39 | 0.614 | – |
| HUO3N1 BONE | 3.18 | 2.53 | 1.56 | 3.37 |
| JIMT1 BREAST | 2.93 | 2.23 | 0.911 | 3.33 |
| JURKAT HAEMATOPOIETIC AND LYMPHOID TISSUE | 3.29 | 1.7 | 0.479 | 3.49 |
| KPD BONE | 3.06 | 1.89 | 1.5 | 3.28 |
| LM7 BONE | 2.42 | 1.88 | 0.659 | 3.51 |
| LNCAP PROSTATE | – | 1.64 | 0.892 | 3.01 |
| MCF7 BREAST | 2.76 | 2.3 | 1.8 | 2.89 |
| MDAMB157 BREAST | 2.78 | 2.28 | 0.791 | 3.08 |
| MDAMB231 BREAST | 3.15 | 2.3 | 1.56 | 3.22 |
| MDAMB361 BREAST | 2.35 | 2.27 | 1.68 | 2.85 |
| MDAMB436 BREAST | 2.86 | 2.16 | 1.46 | 3.1 |
| MDAMB453 BREAST | 3.19 | 2.06 | 0.857 | 3.16 |
| MFM223 BREAST | 2.88 | 2.02 | 0.566 | 3.56 |
| MG63 BONE | 3.24 | 2.18 | 1.12 | 3.28 |
| MHM BONE | 3.2 | 2.48 | 2.08 | 3.28 |
| NCIH441 LUNG | 3.05 | 2.63 | 1.79 | 3.25 |
| NOS1 BONE | 3.08 | 2.09 | 1.35 | – |
| NY BONE | 3.13 | 1.89 | 0.972 | 3.06 |

| Test System | area under dose-response curve (CANERTINIB) | area under dose-response curve (SNX-5422) | area under dose-response curve (BI-2536) | area under dose-response curve (MDV3100) |
| --- | --- | --- | --- | --- |
| OS25HAL BONE | 3.13 | 2.27 | 0.792 | 3.23 |
| OSHN BONE | 3.16 | 2.25 | 1.13 | 3.44 |
| RDES SOFT TISSUE | 2.83 | 2.11 | 1.09 | 3.91 |
| S68 BREAST | 2.53 | 1.76 | 1.03 | 3.58 |
| SAOS2 BONE | 2.87 | 1.96 | 0.684 | 3.65 |
| SCC47 HEADNECK | 2.83 | 2.08 | 1.87 | 3.22 |
| SCC90 HEADNECK | 2.13 | 1.96 | 0.697 | – |
| SG27 HEADNECK | 3.27 | 2.78 | 2.97 | – |
| SG28 HEADNECK | – | 2.19 | 2.69 | – |
| SG31 HEADNECK | 2.3 | 2.1 | 2.2 | 3.39 |
| SG32 HEADNECK | 2.35 | 1.98 | 1.44 | 3.4 |
| SG43 HEADNECK | 1.92 | 1.7 | 1.83 | 3.06 |
| SIHA CERVIX | 2.92 | 2.2 | 1.43 | 3.05 |
| SUM44 BREAST | 2.78 | 2.47 | 0.689 | 3.43 |
| SUM149 BREAST | 1.76 | 1.7 | 0.784 | 2.73 |
| SUM149.B1*.S BREAST | 3 | 2.31 | 2 | 2.91 |
| SUM159 BREAST | 3.11 | 2.17 | 1.81 | 3.33 |
| SYO1 SYNOVIAL | 2.48 | 1.47 | 0.562 | 2.45 |
| T47D BREAST | 3.01 | 2.33 | 1.66 | 3.29 |
| U2OS BONE | 3.13 | 2.17 | 1.57 | 3.37 |
| VP229 BREAST | 1.58 | 2.34 | 1.18 | – |
| YAMATO SYNOVIAL | 3.14 | 2.53 | 1.27 | 2.85 |
| ZR751 BREAST | 2.8 | 2.39 | 2.69 | 3.69 |
